Some results are limits rather than exact numbers.

Series [1] relates to cold-stored human platelets. As to the kind of experiment: Human platelet recovery after xenotransfusion of cold-stored human platelets into NSG mice. In kind it is in vivo, human platelets in NOD/SCID/gc-/- (NSG) mice. To be noted: 10 μM in PAS-3M, cold storage 1-6° C. for 7 or 14 days, followed 24 hours post-transfusion. As for the experimental part: To assess (S)G04 and (R)G04 prevention of platelet activation in vivo, xenotransfusion was performed of long-term (day 7, FIG. 3 and day 14, FIG. 4) stored solutions by taking an aliquot (equivalent to 1×10^6 platelets) of CFSE-labeled cold-stored human platelets (Acrodose, pooled platelets from four ABO identical donors) that were transfused to conditioned NOD/SCID/gc−/− (NSG) mice and followed for 24 hours post-transfusion.
Four storage conditions were tested. In all storage conditions, the vehicle was the platelet additive solution PAS-3M (Grifols, Barcelona, Spain). The storage conditions varied as follows (1) room temperature storage in vehicle only (RT-Vehicle), (2) cold storage (1-6° C., average ˜2° C.) in vehicle only (Cold-Vehicle), (3) cold storage in vehicle with 10 μM (S)G04 (Cold-G04-S), (4) cold storage in vehicle with 75 μM (R)G04 (Cold-G04-R).
Data is presented as an average of a triplicate analysis. […] Data is presented as an average of a triplicate analysis.

The nature of series [2]: Pharmacokinetic study of (S)G04 in mice, serum UPLC-MS/MS. In kind it is in vivo. Conditions: IV injection of 10 and 50 μM in PAS buffer. How it is done: Standard (S)G04 was diluted from DMSO stock (50 mM) with PAS buffer into 10 and 50 μM, administered to mice via IV injection, and serum samples were collected at time points 1, 3, 10, 30 min, and stored at −80° C. before analysis. PK samples from mice serum (retro orbital bleed) were usually 20-100 μL.
A calibration curve in the range of 0-1 μM, i.e. 0, 0.01, 0.05, 0.1, 0.5, 1 μM, was prepared by spiking standard solution ([…] (S)G04 in PAS buffer) into blank mouse serum and then conducting serial dilution accordingly.
QC samples were prepared in the same way with final concentration of 0.05 and 0.5 μM.
Samples were prepared by carrying out the following steps. Add 20 μL of mouse serum (PK samples, calibrators and QCs), and 20 μL of internal standard in methanol, vortex for 30 secs. Add 100 μL of ice cold MeOH then vortex for 1 min. Let sit for 5 minutes before submitting to centrifuge for 10 minutes at 21,100×g (RCF) at 4° C. Take 100 μL of the supernatant and transfer to autosampler vial (max recovery, Waters). Put a cap on the vial, and load vials onto UPLC-MS autosampler for analysis. Because organic solvent evaporates relatively quickly at room temperature, samples in organic solvents should not be left at room temperature longer than 6 hr before injection. Set up the UPLC-MS/MS system: cleaning cone, in accordance with the manufacturer's Operation SOP/documents. […]

Series [3] relates to washed human platelet suspension. Nature of the series: Inhibition of collagen-induced platelet aggregation (aggregometer). To be noted: washed human platelets, 2 min preincubation, collagen 4 μg/ml, read-out 6 min after induction. In kind it is cell-based. As for the experimental part:
Platelet shape change in washed platelets was monitored using an aggregometer and the decrease in light transmittance following addition of an agonist (Huzoor et al., 1993). For the purpose of this analysis, collagen was used as the agonist. Briefly, a washed human platelet suspension was incubated at 37° C. in a Lumi-Aggregometer (Chrono-Log Corporation) with stirring at 900 rpm, followed by the addition of dimethylsulfoxide (DMSO) as a control vehicle, or DMSO containing (S)G04 or (R)G04 (FIG. 1A). (S)G04 and (R)G04 were tested at concentrations of 1, 5, 10, 30 and 50 μM.
After incubating the samples with the respective compound for 2 minutes, platelet aggregation was induced by adding collagen ([…]) and the relative aggregation value was read out at 6 min after the induction. A dose response for each compound was derived.
In these experiments, a collagen concentration of 4 μg/ml was used. The IC50 values calculated for (R)G04 and (S)G04 are 40 μM and 4 μM, respectively.

The subject of series [4] is congenic murine platelets. Nature of the series: In vivo clot formation: tail bleeding time of aspirinated mice after platelet transfusion. Conditions: 10 μM, murine platelets stored cold (1-6° C.) 4 hours, 24 hours post-administration of platelets. How it is done:
Next, the influence of G04 ((S)G04 and (R)G04) on in vivo clot formation was examined. Congenic murine platelets were stored in cold (1-6° C.) for 4 hours and then administered to mice 24 hours after administration of aspirin. Bleeding time was measured for aspirinated mice receiving no platelets, vehicle-only platelets stored at room temperature, vehicle-only cold-stored platelets, vehicle+(R)G04 (75 μM) cold-stored platelets, and vehicle+(S)G04 (10 μM) cold-stored platelets. The results were compared to control non-aspirinated mice (Basal).

As for `N[C@@H](Cc1c[nH]c2ccccc12)C(=O)N/N=C/c1ccc2nccnc2c1` [(S)G04], the “survival of cold-stored platelets (recovery and AUC) after xenotransfusion” value in series [1] is listed as “completely prevented the decreased survival”. Besides, in series [2], the “reduction of the injection concentration in 1 minute” value is listed as > 100 ×. Besides, the IC50 in series [3] was 4 µM. Also, in series [4], the “bleeding time of aspirinated mice” value is “completely corrected the bleeding time”.

As a reminder, the IC50 is the concentration needed to halve the response being measured.

For the origin of these results see patent US20230068990A1, “PLATELET STORAGE METHODS AND COMPOSITIONS” (Platefuse, Inc., priority 2020, published 2023).
